In patent US9102678B2, “Compounds and methods for inhibiting mitotic progression” (Millennium Pharmaceuticals, Inc., priority 2004, dated 2015):

These molecules were tested against T1, recombinant murine Aurora A enzyme (Mus musculus, UniProt P97477) (assay: Aurora A DELFIA Kinase Assay). Settings: mouse Aurora A, 250 μM ATP; threshold less than or equal to 100 nM; read-out: IC50.
T1 construct: hexahistidine (His6) (N); made in house; host or cells: insect cells, baculovirus (Bac-to-Bac, Invitrogen)
T1 sequence (P97477 whole entry): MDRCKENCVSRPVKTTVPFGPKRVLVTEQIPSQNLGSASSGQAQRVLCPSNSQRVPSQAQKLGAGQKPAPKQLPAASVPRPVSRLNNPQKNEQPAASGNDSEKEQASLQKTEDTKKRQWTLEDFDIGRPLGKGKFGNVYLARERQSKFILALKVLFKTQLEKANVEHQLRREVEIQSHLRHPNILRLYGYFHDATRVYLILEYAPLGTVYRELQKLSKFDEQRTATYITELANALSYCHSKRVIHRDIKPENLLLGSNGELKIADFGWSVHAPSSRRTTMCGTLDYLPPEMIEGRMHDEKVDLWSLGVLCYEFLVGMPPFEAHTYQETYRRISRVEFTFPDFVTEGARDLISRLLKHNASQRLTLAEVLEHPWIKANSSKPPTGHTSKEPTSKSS
Assay type: biochemical

IC50, ≤ 100 nM:
CC1CN(C(=N)c2ccc(Nc3ncc4c(n3)-c3ccc(Cl)cc3C(c3c(F)cccc3F)=NC4)cc2)CC(C)N1 (stereo not drawn) [Compound I-251, [9-Chloro-7-(2,6-difluoro-phenyl)-5H-benzo[c]pyrimido[4,5-e]azepin-2-yl]-{4-[(3,5-dimethyl-piperazin-1-yl)-imino-methyl]-phenyl}-amine]
COc1cccc(F)c1C1=NCc2cnc(Nc3ccc(C(=O)N4CCNCC4)cc3)nc2-c2ccc(Cl)cc21 [Compound I-243, 9-chloro-7-(2-fluoro-6-methoxyphenyl)-N-[4-(piperazin-1-ylcarbonyl)phenyl]-5H-pyrimido[5,4-d][2]benzazepin-2-amine]
CN(C)C1CN(C(=O)c2ccc(Nc3ncc4c(n3)-c3ccc(Cl)cc3C(c3ccccc3F)=NC4)cc2)C1 [Compound I-98, {4-[9-Chloro-7-(2-fluoro-phenyl)-5H-benzo[c]pyrimido[4,5-e]azepin-2-ylamino]-phenyl}-(3-dimethylamino-azetidin-1-yl)-methanone]
NC(=O)c1ccc(Nc2ncc3c(n2)-c2ccc(Cl)cc2C(c2ccccc2Cl)=NC3)cc1 [Compound I-63, 4-[9-Chloro-7-(2-chloro-phenyl)-5H-benzo[c]pyrimido[4,5-e]azepin-2-ylamino]-benzamide]
COc1cccc(F)c1C1=NCc2cnc(Nc3ccc(C(=O)N4CCC(N)CC4)cc3)nc2-c2ccc(Cl)cc21 [Compound I-241, N-{4[(4-aminopiperidin-1-yl)carbonyl]phenyl}-9-chloro-7-(2-fluoro-6-methoxyphenyl)-5H-pyrimido[5,4-d][2]benzazepin-2-amine]
COc1cccc(Nc2ncc3c(n2)-c2ccc(C(=O)O)cc2C(c2ccccc2F)=NC3)c1 [Compound I-256, 7-(2-fluorophenyl)-2-[(3-methoxyphenyl)amino]-5H-pyrimido[5,4-d][2]benzazepine-9-carboxylic acid]
CC(C)(N)CNC(=O)c1ccc(Nc2ncc3c(n2)-c2ccc(Cl)cc2C(c2c(F)cccc2F)=NC3)cc1 [Compound I-260, N-(2-amino-2-methylpropyl)-4-{[9-chloro-7-(2,6-difluorophenyl)-5H-pyrimido[5,4-d][2]benzazepin-2-yl]amino}benzamide]
CNC1CCN(C(=O)c2ccc(Nc3ncc4c(n3)-c3ccc(Cl)cc3C(c3c(F)cccc3F)=NC4)cc2)CC1 [Compound I-220, 9-chloro-7-(2,6-difluorophenyl)-N-(4-{[4-(methylamino)piperidin-1-yl]carbonyl}phenyl)-5H-pyrimido[5,4-d][2]benzazepin-2-amine]
O=C(NCCc1ccccn1)c1ccc(Nc2ncc3c(n2)-c2ccc(Cl)cc2C(c2ccccc2F)=NC3)cc1 [Compound I-161, 4-[9-Chloro-7-(2-fluoro-phenyl)-5H-benzo[c]pyrimido[4,5-e]azepin-2-ylamino]-N-(2-pyridin-2-yl-ethyl)-benzamide]
CN1CCN(CCCNC(=O)c2ccc(Nc3ncc4c(n3)-c3ccc(Cl)cc3C(c3ccccc3Cl)=NC4)cc2)CC1 [Compound I-20, 4-[9-Chloro-7-(2-chloro-phenyl)-5H-benzo[c]pyrimido[4,5-e]azepin-2-ylamino]-N-[3-(4-methyl-piperazin-1-yl)-propyl]-benzamide]
CN(C)C1CCN(C(=O)c2cccc(Nc3ncc4c(n3)-c3ccc(Cl)cc3C(c3c(F)cccc3F)=NC4)c2)C1 (stereo not drawn) [Compound I-206, 9-chloro-7-(2,6-difluorophenyl)-N-(3-{[3-(dimethylamino)pyrrolidin-1-yl]carbonyl}phenyl)-5H-pyrimido[5,4-d][2]benzazepin-2-amine]
NC(=O)C1(N)CCN(C(=O)c2ccc(Nc3ncc4c(n3)-c3ccc(Cl)cc3C(c3c(F)cccc3F)=NC4)cc2)CC1 [Compound I-350, 4-amino-1-(4-{[9-chloro-7-(2,6-difluorophenyl)-5H-pyrimido[5,4-d][2]benzazepin-2-yl]amino}benzoyl)piperidine-4-carboxamide]
CCN(CC)CCN1CCN(C(=O)c2ccc(Nc3ncc4c(n3)-c3ccc(Cl)cc3C(c3ccccc3F)=NC4)cc2)CC1 [Compound I-209, 9-chloro-N-[4-({4-[2-(diethylamino)ethyl]piperazin-1-yl}carbonyl)phenyl]-7-(2-fluorophenyl)-5H-pyrimido[5,4-d][2]benzazepin-2-amine]
NC(=O)C1CN(C(=O)c2ccc(Nc3ncc4c(n3)-c3ccc(Cl)cc3C(c3c(F)cccc3F)=NC4)cc2)CCN1 (stereo not drawn) [Compound I-317, 4-(4-{[9-chloro-7-(2,6-difluorophenyl)-5H-pyrimido[5,4-d][2]benzazepin-2-yl]amino}benzoyl)piperazine-2-carboxamide]
CN(C)C1CCN(C(=O)c2ccc(Nc3ncc4c(n3)-c3ccc(Cl)cc3C(c3c(F)cccc3F)=NC4)cc2)CC1 [Compound I-183, {4-[9-Chloro-7-(2,6-difluoro-phenyl)-5H-benzo[c]pyrimido[4,5-e]azepin-2-ylamino]-phenyl}-(4-dimethylamino-piperidin-1-yl)-methanone]
CN1CCCC(CN2CCN(C(=O)c3ccc(Nc4ncc5c(n4)-c4ccc(Cl)cc4C(c4ccccc4F)=NC5)cc3)CC2)C1 (stereo not drawn) [Compound I-211, 9-chloro-7-(2-fluorophenyl)-N-[4-({4-[(1-methylpiperidin-3-yl)methyl]piperazin-1-yl}carbonyl)phenyl]-5H-pyrimido[5,4-d][2]benzazepin-2-amine]
O=C(NC1CCNCC1)c1ccc(Nc2ncc3c(n2)-c2ccc(Cl)cc2C(c2ccccc2F)=NC3)cc1 [Compound I-16, 4-[9-Chloro-7-(2-fluoro-phenyl)-5H-benzo[c]pyrimido[4,5-e]azepin-2-ylamino]-N-piperidin-4-yl-benzamide]
Cc1cc(NS(=O)(=O)c2ccc(Nc3ncc4c(n3)-c3ccc(Cl)cc3C(c3ccccc3Cl)=NC4)cc2)no1 [Compound I-69, 4-[9-Chloro-7-(2-chloro-phenyl)-5H-benzo[c]pyrimido[4,5-e]azepin-2-ylamino]-N-(5-methyl-isoxazol-3-yl)-benzenesulfonamide]
CNC1CCCN(C(=O)c2ccc(Nc3ncc4c(n3)-c3ccc(Cl)cc3C(c3c(F)cccc3Cl)=NC4)cc2)C1 (stereo not drawn) [Compound I-326, 9-chloro-7-(2-chloro-6-fluorophenyl)-N-(4-{[3-(methylamino)piperidin-1-yl]carbonyl}phenyl)-5H-pyrimido[5,4-d][2]benzazepin-2-amine]
CN(C)CC1CN(C(=O)c2ccc(Nc3ncc4c(n3)-c3ccc(Cl)cc3C(c3ccccc3F)=NC4)cc2)C1 [Compound I-193, {4-[9-Chloro-7-(2-fluoro-phenyl)-5H-benzo[c]pyrimido[4,5-e]azepin-2-ylamino]-phenyl}-(3-dimethylaminomethyl-azetidin-1-yl)-methanone]
O=C(O)Cc1cccc(Nc2ncc3c(n2)-c2ccc(Cl)cc2C(c2ccccc2Cl)=NC3)c1 [Compound I-65, {3-[9-Chloro-7-(2-chloro-phenyl)-5H-benzo[c]pyrimido[4,5-e]azepin-2-ylamino]-phenyl}-acetic acid]
NC1CCN(C(=O)c2ccc(Nc3ncc4c(n3)-c3ccc(Cl)cc3C(c3ccccc3C(F)(F)F)=NC4)cc2)CC1 [Compound I-287, N-{4[(4-aminopiperidin-1-yl)carbonyl]phenyl}-9-chloro-7-[2-(trifluoromethyl)phenyl]-5H-pyrimido[5,4-d][2]benzazepin-2-amine]
COc1cccc(F)c1C1=NCc2cnc(Nc3ccc(C(=O)N4CC(N)C4)cc3)nc2-c2ccc(Cl)cc21 [Compound I-286]
CNCCN(C)C(=O)c1ccc(Nc2ncc3c(n2)-c2ccc(Cl)cc2C(c2c(F)cccc2F)=NC3)cc1 [Compound I-246, 4-{[9-chloro-7-(2,6-difluorophenyl)-5H-pyrimido[5,4-d][2]benzazepin-2-yl]amino}-N-methyl-N-[2-(methylamino)ethyl]benzamide]
NC1CN(C(=O)c2ccc(Nc3ncc4c(n3)-c3ccc(Cl)cc3C(c3ccccc3F)=NC4)cc2)C1 [Compound I-192, (3-Amino-azetidin-1-yl)-{4-[9-chloro-7-(2-fluoro-phenyl)-5H-benzo[c]pyrimido[4,5-e]azepin-2-ylamino]-phenyl}-methanone]
Cc1ccccc1C1=NCc2cnc(Nc3ccc(C(=O)NCCN4CCOCC4)cc3)nc2-c2ccc(Cl)cc21 [Compound I-31, 4-(9-Chloro-7-o-tolyl-5H-benzo[c]pyrimido[4,5-e]azepin-2-ylamino)-N-(2-morpholin-4-yl-ethyl)-benzamide]
O=C(O)c1ccc(Nc2ncc3c(n2)-c2ccc(Cl)cc2C(c2c(F)cccc2Cl)=NC3)cc1 [Compound I-174, 4-{[9-Chloro-7-(2-chloro-6-fluorophenyl)-5H-pyrimido-[5,4-d][2]benzazepin-2-yl]amino}benzoic acid]
CN(C)C1CN(C(=N)c2ccc(Nc3ncc4c(n3)-c3ccc(Cl)cc3C(c3c(F)cccc3F)=NC4)cc2)C1 [Compound I-267, 9-chloro-7-(2,6-difluorophenyl)-N-{4-[[3-(dimethylamino)azetidin-1-yl](imino)methyl]phenyl}-5H-pyrimido[5,4-d][2]benzazepin-2-amine]
CC1CN(C(=O)c2csc(Nc3ncc4c(n3)-c3ccc(Cl)cc3C(c3c(F)cccc3F)=NC4)n2)CC(C)N1 (stereo not drawn) [Compound I-362, 9-chloro-7-(2,6-difluorophenyl)-N-{4-[(3,5-dimethylpiperazin-1-yl)carbonyl]-1,3-thiazol-2-yl}-5H-pyrimido[5,4-d][2]benzazepin-2-amine]
CN(C)C1CCN(C(=O)c2ccc(Nc3ncc4c(n3)-c3ccc(Cl)cc3C(c3ccccc3F)=NC4)cc2)CC1 [Compound I-18, {4-[9-Chloro-7-(2-fluoro-phenyl)-5H-benzo[c]pyrimido[4,5-e]azepin-2-ylamino]-phenyl}-(4-dimethylamino-piperidin-1-yl)-methanone]
